Assay results: patent publication US20140235627A1, “ß2-ADRENOCEPTOR AGONIST FOR IMPROVEMENT OF EXERCISE TOLERANCE” (BOEHRINGER INGELHEIM INTERNATIONAL GMBH, priority 2012, published 2014)

How the values were obtained:
Assay type in all cases: in vivo, human
[1] = test system: patients with COPD; test: Endurance time during constant work rate cycle ergometry at 75% Wcap (studies 1222.37 and 1222.38); conditions: after 6 weeks
Text: While, the FDA COPD draft guidance for industry notes that—assessment of exercise capacity by treadmill or cycle ergometry combined with lung volume assessment potentially can be a tool to assess efficacy of a drug (Guidance for industry: chronic obstructive pulmonary disease: developing drugs for treatment (draft guidance, November 2007). Rockville: U.S. Department of Health and Human Services, Food and Drug Administration, Center for Drug Evaluation and Research (CDER) (2007)) two studies (1222.37 & 1222.38) were designed to evaluate the effects of olodaterol on improvement of exercise.
(§1) Constant work rate cycle ergometry at 75% Wcap was selected as the exercise modality based on previous experience with other bronchodilators. The primary efficacy endpoint was endurance time, while IC at isotime and the intensity of breathing discomfort at isotime were key secondary endpoints. Isotime was defined as the endurance time of the constant work rate exercise test of shortest duration, which ensured that IC and intensity of breathing discomfort were compared across treatments at the same time of exercise for an individual.
At baseline, the geometric mean exercise endurance time during constant work rate cycle ergometry to symptom limitation at 75% of maximal work capacity was 414 seconds (6 minutes 54 seconds) in study 1222.37 and 374 seconds (6 minutes 14 seconds) in study 1222.38.

[2] = test system: patients with COPD; test: Inspiratory capacity (IC) at isotime during exercise (studies 1222.37 and 1222.38); conditions: after 6 weeks
Text: as §1

[3] = test system: patients with COPD; test: Intensity of breathing discomfort (Borg Scale) at isotime during exercise (studies 1222.37 and 1222.38); conditions: after 6 weeks
Text: as §1

[4] = test system: patients with COPD; test: Rescue medication use (electronic diary) in 48-week pivotal studies; conditions: for Reduction in daytime rescue bronchodilator use compared to placebo / Reduction in nighttime rescue bronchodilator use compared to placebo: at 48 weeks
Description: Additionally to that rescue medication use was assessed in 48-week pivotal studies using an electronic diary, indicated whether the bronchodilating effects of olodaterol provided sufficient symptomatic benefit to reduce the need for albuterol to control symptoms on a daily and nightly basis.

[5] = study 1222.37, olodaterol 10 μg
[6] = study 1222.38, olodaterol 10 μg
[7] = study 1222.37, olodaterol 5 μg, listed as olodaterol
[8] = study 1222.37, olodaterol 10 μg, listed as olodaterol
[9] = study 1222.38, olodaterol 5 μg, listed as olodaterol
[10] = study 1222.38, olodaterol 10 μg, listed as olodaterol

COc1ccc(CC(C)(C)NC[C@H](O)c2cc(O)cc3c2OCC(=O)N3)cc1 [Olodaterol]
Adjusted Mean Endurance Time, Treatment Mean (SE) ([1]; study 1222.37, olodaterol 5 μg): 421.58 (13.459) Seconds
Endurance time increase compared with placebo ([1]; study 1222.37, olodaterol 5 μg): 14.0%
Adjusted Mean Endurance Time, Treatment Mean (SE) [1, 5]: 420.72 (13.602) Seconds
Endurance time increase compared with placebo [1, 5]: 13.8%
Adjusted Mean Endurance Time, Treatment Mean (SE) ([1]; study 1222.38, olodaterol 5 μg): 396.31 (13.680) Seconds
Endurance time increase compared with placebo ([1]; study 1222.38, olodaterol 5 μg): 11.8%
Adjusted Mean Endurance Time, Treatment Mean (SE) [1, 6]: 391.45 (13.566) Seconds
Endurance time increase compared with placebo [1, 6]: 10.5%
Adjusted Mean Inspiratory Capacity at Isotime During Exercise, Treatment mean (SE) ([2]; study 1222.37, olodaterol 5 μg): 2.099 (0.038) L
Inspiratory Capacity at Isotime, Mean (SE) compared to placebo ([2]; study 1222.37, olodaterol 5 μg): 0.182 (0.036) L
Inspiratory Capacity at Isotime, Mean (SE) compared to placebo [2, 7]: statistically significant increase
Adjusted Mean Inspiratory Capacity at Isotime During Exercise, Treatment mean (SE) [2, 5]: 2.091 (0.038) L
Inspiratory Capacity at Isotime, Mean (SE) compared to placebo [2, 5]: 0.174 (0.036) L
Inspiratory Capacity at Isotime, Mean (SE) compared to placebo [2, 8]: statistically significant increase
Adjusted Mean Inspiratory Capacity at Isotime During Exercise, Treatment mean (SE) ([2]; study 1222.38, olodaterol 5 μg): 2.246 (0.039) L
Inspiratory Capacity at Isotime, Mean (SE) compared to placebo ([2]; study 1222.38, olodaterol 5 μg): 0.084 (0.035) L
Inspiratory Capacity at Isotime, Mean (SE) compared to placebo [2, 9]: statistically significant increase
Adjusted Mean Inspiratory Capacity at Isotime During Exercise, Treatment mean (SE) [2, 6]: 2.328 (0.039) L
Inspiratory Capacity at Isotime, Mean (SE) compared to placebo [2, 6]: 0.166 (0.034) L
Inspiratory Capacity at Isotime, Mean (SE) compared to placebo [2, 10]: statistically significant increase
Intensity of Breathing Discomfort at Isotime During Exercise, Treatment mean (SE) ([3]; study 1222.37, olodaterol 5 μg): 5.104 (0.182) Borg Scale
Intensity of Breathing Discomfort at Isotime, Difference to placebo Mean (SE) ([3]; study 1222.37, olodaterol 5 μg): −0.766 (0.223) Borg Scale
Intensity of Breathing Discomfort at Isotime, Difference to placebo Mean (SE) [3, 7]: statistically significant reduction
Intensity of Breathing Discomfort at Isotime During Exercise, Treatment mean (SE) [3, 5]: 5.235 (0.185) Borg Scale
Intensity of Breathing Discomfort at Isotime, Difference to placebo Mean (SE) [3, 5]: −0.634 (0.225) Borg Scale
Intensity of Breathing Discomfort at Isotime, Difference to placebo Mean (SE) [3, 8]: statistically significant reduction
Intensity of Breathing Discomfort at Isotime During Exercise, Treatment mean (SE) ([3]; study 1222.38, olodaterol 5 μg): 5.250 (0.180) Borg Scale
Intensity of Breathing Discomfort at Isotime, Difference to placebo Mean (SE) ([3]; study 1222.38, olodaterol 5 μg): −0.336 (0.214) Borg Scale
Intensity of Breathing Discomfort at Isotime, Difference to placebo Mean (SE) [3, 9]: no significant differences
Intensity of Breathing Discomfort at Isotime During Exercise, Treatment mean (SE) [3, 6]: 5.520 (0.181) Borg Scale
Intensity of Breathing Discomfort at Isotime, Difference to placebo Mean (SE) [3, 6]: −0.066 (0.214) Borg Scale
Intensity of Breathing Discomfort at Isotime, Difference to placebo Mean (SE) [3, 10]: no significant differences
Reduction in daytime rescue bronchodilator use compared to placebo ([4]; 1222.11/12, 5 μg): −0.455 units
Reduction in nighttime rescue bronchodilator use compared to placebo ([4]; 1222.11/12, 5 μg): −0.497 units
Reduction in daytime rescue bronchodilator use compared to placebo ([4]; 1222.11/12, 10 μg): −0.574 units
Reduction in nighttime rescue bronchodilator use compared to placebo ([4]; 1222.11/12, 10 μg): −0.775 units
Reduction in daytime rescue bronchodilator use compared to placebo ([4]; 1222.13/14, 5 μg): −0.269 units
Reduction in nighttime rescue bronchodilator use compared to placebo ([4]; 1222.13/14, 5 μg): −0.530 units
Reduction in daytime rescue bronchodilator use compared to placebo ([4]; 1222.13/14, 10 μg): −0.337 units
Reduction in nighttime rescue bronchodilator use compared to placebo ([4]; 1222.13/14, 10 μg): −0.617 units
Reduction in daytime and nighttime rescue medication use relative to twice-daily formoterol ([4]; studies 1222.13, 1222.14, once-daily olodaterol): comparable to twice-daily formoterol
